{"source": "patent US11185527B2", "about": "“Methods and compositions relating to steroid hormone receptor-dependent cancers” (Wayne State University, priority 2017, dated 2021)", "key": {"[1]": {"tested_on": "HEK293 (adenovirus transformed kidney fibroblasts), AR-negative", "assay": "Cell monolayer growth assay (MTT)", "type": "cell-based", "experimental": "FIG. 12C is a graph showing the effect of KCI807 on in vitro growth of AR-negative cell line HEK293 cells measured by the MTT assay. All values were plotted relative to the Day zero value.\n(§1) Cells were trypsinized and 3000-4000 cells/well were seeded in 96-well plates coated with poly-D-lysine. The cells were seeded in phenol red-free medium supplemented with 10% FBS, 100 units/ml penicillin, 100 μg/ml streptomycin, 2 mM L-glutamine mixture and sodium pyruvate (1 mM) for LNCaP cells and phenol red-free medium supplemented with 10% FBS, 100 units/ml penicillin, 100 μg/ml streptomycin and 2 mM L-glutamine mixture for VCaP, 22Rv1, DU145, HeLa, HEK293 and H1650 cells. The cells were grown at 37° C. in 5% CO2. Twenty four hours after seeding in the 96-well plates, the cells were treated with the indicated concentration of KCI807 or DMSO (vehicle). The cells were re-treated on Day 3 by removing half the volume of medium and replacing it with fresh treated medium. Cell viability was determined using the MTT assay from day zero until day five. MTT (10 μL, 5 mg/mL) was added to each well and incubated for 2h at 37° C. The formazan crystal sediments were dissolved in 100 μL of DMSO, and the absorbance at 570 nm was measured using the BioTek Synergy 2 Microplate Reader (BioTek, Winooski, Vt.). The assay was conducted in sextuplicate wells and values were normalized to day zero."}, "[2]": {"tested_on": "HeLa (cervical cancer cells), AR-negative", "assay": "Cell monolayer growth assay (MTT)", "type": "cell-based", "experimental": "as §1, with “FIG. 12B is a graph showing the effect of KCI807 on in vitro growth of AR-negative cell line HeLa cells measured by the MTT assay. All values were plotted relative to the Day zero value. Cells” for “Cells”"}, "Full length human AR": {"biological_target": "T1, Full length human AR (Homo sapiens, UniProt P10275)", "T1 construct": "Full length human AR expressed in insect cells; purchased Abcam (Cambridge Mass.) ab82609; host or cells: insect cells", "T1 sequence (P10275 1-920)": "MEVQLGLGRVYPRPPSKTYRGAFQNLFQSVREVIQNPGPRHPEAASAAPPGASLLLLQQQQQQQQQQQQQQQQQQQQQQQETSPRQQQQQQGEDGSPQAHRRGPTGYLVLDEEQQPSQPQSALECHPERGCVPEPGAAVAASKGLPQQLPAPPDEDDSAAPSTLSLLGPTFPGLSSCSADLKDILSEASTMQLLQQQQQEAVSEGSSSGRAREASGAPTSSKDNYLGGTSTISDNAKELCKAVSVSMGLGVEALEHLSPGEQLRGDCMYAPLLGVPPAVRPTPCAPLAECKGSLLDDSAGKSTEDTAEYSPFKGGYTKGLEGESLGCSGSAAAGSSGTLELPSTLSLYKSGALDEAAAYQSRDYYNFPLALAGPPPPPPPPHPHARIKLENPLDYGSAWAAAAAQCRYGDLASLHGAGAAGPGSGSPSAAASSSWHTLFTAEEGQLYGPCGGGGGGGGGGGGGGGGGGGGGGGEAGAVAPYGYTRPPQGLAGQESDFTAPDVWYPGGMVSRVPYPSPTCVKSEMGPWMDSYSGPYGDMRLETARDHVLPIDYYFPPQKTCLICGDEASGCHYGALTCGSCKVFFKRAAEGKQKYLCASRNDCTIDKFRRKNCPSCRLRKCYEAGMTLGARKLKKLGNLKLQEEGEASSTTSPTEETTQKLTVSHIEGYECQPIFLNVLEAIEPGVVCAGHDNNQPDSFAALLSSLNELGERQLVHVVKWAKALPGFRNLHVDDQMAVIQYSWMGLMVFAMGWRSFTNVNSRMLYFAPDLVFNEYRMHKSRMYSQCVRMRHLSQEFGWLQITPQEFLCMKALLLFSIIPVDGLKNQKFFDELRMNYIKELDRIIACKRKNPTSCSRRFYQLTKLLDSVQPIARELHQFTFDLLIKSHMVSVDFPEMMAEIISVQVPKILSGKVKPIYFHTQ", "assay": "Surface plasmon resonance, compound (analyte) binding to immobilized AR", "details": "SPR, compound as analyte", "experimental": "FIG. 2A is a graph showing surface plasmon resonance (SPR) kinetic curves for quantitative analyses of KCI807 binding to AR.\nThe proteins were eluted with 200 mM imidazole and dialysed against […], pH 7.9 containing 10% glycerol, 20 mM KCl, 2 mM MgCl2, 0.2 mM EDTA, 0.5 mM benzamidine and 0.5 mM DTT.\nAmine Coupling Kit, CM5 sensor chip and HBS-N buffer (GE Healthcare) were used for surface plasmon resonance (SPR) analysis. The rate and equilibrium binding constants of the interaction of AR with KCI807 was determined using Biacore 3000 (Biacore, Piscataway, N.J.). […] The immobilization involved activation of carboxymethyl groups on a dextran-coated chip by reaction with N-hydroxysuccinimide, followed by covalent bonding of the ligand (AR) to the chip surface via amide linkages. Reference surfaces were prepared in the same manner but blocked with ethanolamine and thus contained no ligand. […] The interaction (response units, RU) between analyte and ligand was recorded as the ligand RU minus the reference RU. Kinetic values were determined using BIAevaluation software (Biacore), and the data were fitted with the model showing closest match, according to methods described in Drescher DG et al., Methods Mol. Biol., (Clifton, N. J.). […] A 1:1 Langmuir binding model was generally selected, in which all the sensorgrams representing the different analyte concentrations were fitted simultaneously with the wide window of association and dissociation phases. Individual concentration curves were also evaluated to confirm the fitting data. The equilibrium dissociation constant (Kd) was calculated by kd=koff/kon. In all cases, baseline was established in the presence of the vehicle used for the compounds (DMSO) appropriately diluted in BBS-N buffer."}}, "data": [{"compound": "O=c1cc(-c2cccc(O)c2)oc2cccc(O)c12", "note": "[KCI807, 5,3′-dihydroxyflavone]", "values": [{"measurement": "growth of HEK293 cells", "setting": "[1]", "result": "did not appreciably affect the growth"}, {"measurement": "growth of HeLa cells", "setting": "[2]", "result": "did not appreciably affect the growth"}, {"measurement": "koff", "setting": "Full length human AR", "result": 0.00254, "unit": "s⁻¹"}, {"measurement": "kon", "setting": "Full length human AR", "result": 36700, "unit": "M⁻¹ s⁻¹"}, {"measurement": "Kd", "setting": "Full length human AR; kd=koff/kon, read-out: kd (dissociation constant)", "result": 69.2, "unit": "nM"}]}]}
